Test results published in US6492174B1, “Methods of initiating embryogenic cultures in plants” (Institute of Paper Science & Technology, priority 2000, dated 2002).

How the values were obtained:
Type in all cases: cell-based
[1] = tested on: Loblolly pine megagametophytes; assay: 30 minute abscisic acid soaking pre-treatment, culture on solid media #1042 with or without 0.1 μM brassinolide, eight weeks
Method: In this experiment, the effects of ovule pre-treatment by soaking with abscisic acid solutions of varying concentration was investigated. The abscisic acid treatment was tested on two media, one containing brassinolide and one lacking in brassinolide. The explants were megagametophytes from open pollinated summer cones of four individual trees, representing a multiplicity of genotypes. The seeds contained Stage 2-4 zygotic embryos. Megagametophytes were excised from sterilized seeds, as described in Example 4.
Prior to culturing, the megagametophytes were soaked for 30 minutes in liquid growth media (media #1042, Table 47, minus the gelling agent) containing 0, 5, 10 and 20 ppm abscisic acid. After soaking, the megagametophytes were placed on either one of two solid growth media. While still liquid, 2 ml media was poured into wells on a culture well plate and allowed to solidify. Half the soaked megagametophytes were placed on solid media #1042 (Table 47) and half were placed on solid media #1042 with 0.1 μM brassinolide added.
On solid media where brassinolide was present, there was a dramatic difference in extrusion and initiation between megagametophytes soaked in zero and 5 ppm ABA solutions (Treatments #5 and #6) compared to those soaked in 10 and 20 ppm ABA solutions (Treatments #7 and #8). […] In contrast, megagametophytes treated with higher amounts of ABA in Treatments 7 and 8 had the highest initiation frequencies of any treatment. […] Alternatively, there may have been an interaction between brassinolide and ABA such that low ABA plus brassinolide inhibits extrusion, with this inhibition overcome when ABA concentration is higher.

[2] = tested on: Loblolly pine megagametophytes; assay: Elevated pressure in combination with brassinolide, ABA pre-soak or liquid media #1038, 8 weeks; details: Br 0.1 μM in media #1042, ABA soak 5 ppm 30 minute
Method: The previous examples indicate that elevated pressure can enhance extrusion and initiation. This experiment was designed to test the effect of elevated pressure in combination with other treatments to determine the optimal conditions for promoting extrusion and initiation.
Megagametophytes in some treatments received a 30 minute pre-culturing soak in liquid media (#1042 minus the gelling agent) containing 5 ppm ABA. Megagametophytes in Treatments 9 and 10 were fully immersed in liquid media #1038. The experiment consisted of three replications per treatment, per genotype.
Five different treatments were used, each cultured under 1.0 or 1.5 atmospheres for a total of ten treatments (See Table 33).
After 8 weeks culturing, the treatments were scored. Extrusion and initiation were increased by elevated pressure in all treatments.

[3] = tested on: Norway spruce zygotic embryos; assay: Norway spruce initiation on solid media #56 with ABA, brassinolide or elevated pressure, ten weeks; details: 1 ppm ABA added to medium #56
Method: Explants were zygotic embryos flipped out of the megagametophyte, prepared as in Example 1. The experiment consisted of five replications, with a replication consisting of ten explants in a single petri dish. Explants were cultured on solid media #56 (Table 3). Treatment #1 consisted of explants on media #56. In Treatment #2, the medium additionally contained 1 ppm ABA. In Treatment #3, the media contained […] brassinolide. In Treatment #4, the explants were cultured under 1.5 atmospheres of pressure. After ten weeks, the explants were examined and the frequency of embryogenic culture initiation was scored (Table 43).

[4] = tested on: Douglas fir stage 3-5 zygotic embryos attached to megagametophytes; assay: Douglas fir initiation on solid media #121 with brassinolide, ABA, ABA pre-soak or elevated pressure
Description: The explants used in this experiment were isolated from Douglas fir cones collected in mid-summer from four open-pollinated trees, representing a multiplicity of genotypes. Explants were stage 3-5 (early-midstage) zygotic embryos attached to megagametophytes, prepared as described in Example 2. The embryo and attached megagametophyte were then placed next to each other on the treatment media. As in Example 2, each replication consisted of ten explants in a single petri dish. Each treatment contained four replications per treatment, per genotype.
The treatment media were based on solid media #121, the composition of which is described in Table 5. Media #121 contains no ABA or brassinolide. Treatment #1, the control, consisted of explants cultured on media #121 alone. In Treatment #2, explants were cultured on media #121 containing 0.1 μM brassinolide. In Treatment #3, explants were cultured on media #121 containing 1 ppm ABA. In treatment #4, explants were soaked in liquid media containing 5 ppm ABA for 30 minutes prior to being placed on #121 media. In Treatment #5, explants were cultured on media #121 under 1.5 atmospheres of pressure. The petri dishes were wrapped in PARAFILM and incubated at 23-24° C. in the dark.

[5] = genotype 7-1051, 5 ppm ABA/No Br
[6] = genotype 7-1051, 10 ppm ABA/No Br
[7] = genotype 7-1051, 20 ppm ABA/No Br
[8] = genotype M7-56, 5 ppm ABA/No Br
[9] = genotype M7-56, 10 ppm ABA/No Br
[10] = genotype M7-56, 20 ppm ABA/No Br
[11] = genotype TC5-1501, 5 ppm ABA/No Br
[12] = genotype TC5-1501, 10 ppm ABA/No Br
[13] = genotype TC5-1501, 20 ppm ABA/No Br
[14] = genotype TC11-109, 5 ppm ABA/No Br
[15] = genotype TC11-109, 10 ppm ABA/No Br
[16] = genotype TC11-109, 20 ppm ABA/No Br
[17] = genotype 7-100, + Pressure 1.5 atm
[18] = genotype 11-1095, + Pressure 1.5 atm
[19] = genotype 21-6, + Pressure 1.5 atm

CC1=CC(=O)CC(C)(C)C1(O)/C=C/C(C)=C\C(=O)O (stereo not shown) [ABA, 5-(1-hydroxy-2,6,6,-trimethyl-4-oxo-2-cyclohexen-1-yl)-3-methyl-2,4-penta dienoic acid]
% Megagametophytes Extruding [1, 5]: 53.3 (8.8) % | Embryogenic Culture Initiation - % Megagametophytes Extruding [1, 5]: 20.0 (10.0) % | % Megagametophytes Extruding [1, 6]: 30.0 (5.8) % | Embryogenic Culture Initiation - % Megagametophytes Extruding [1, 6]: 6.7 (3.3) % | % Megagametophytes Extruding [1, 7]: 40.0 (5.8) % | Embryogenic Culture Initiation - % Megagametophytes Extruding [1, 7]: 13.3 (3.3) % | % Megagametophytes Extruding [1, 8]: 20.0 (5.8) % | Embryogenic Culture Initiation - % Megagametophytes Extruding [1, 8]: 13.3 (3.3) % | % Megagametophytes Extruding [1, 9]: 26.7 (6.7) % | Embryogenic Culture Initiation - % Megagametophytes Extruding [1, 9]: 13.3 (3.3) % | % Megagametophytes Extruding [1, 10]: 36.7 (8.8) % | Embryogenic Culture Initiation - % Megagametophytes Extruding [1, 10]: 6.7 (6.7) % | % Megagametophytes Extruding [1, 11]: 33.3 (6.7) % | Embryogenic Culture Initiation - % Megagametophytes Extruding [1, 11]: 10.0 (0.0) % | % Megagametophytes Extruding [1, 12]: 16.7 (8.8) % | Embryogenic Culture Initiation - % Megagametophytes Extruding [1, 12]: 3.3 (3.3) % | % Megagametophytes Extruding [1, 13]: 40.0 (11.5) % | Embryogenic Culture Initiation - % Megagametophytes Extruding [1, 13]: 6.7 (3.3) % | % Megagametophytes Extruding [1, 14]: 33.3 (3.3) % | Embryogenic Culture Initiation - % Megagametophytes Extruding [1, 14]: 10.0 (5.8) % | % Megagametophytes Extruding [1, 15]: 46.7 (13.3) % | Embryogenic Culture Initiation - % Megagametophytes Extruding [1, 15]: 13.3 (3.3) % | % Megagametophytes Extruding [1, 16]: 46.7 (12.0) % | Embryogenic Culture Initiation - % Megagametophytes Extruding [1, 16]: 13.3 (3.3) % | promotion of extrusion or initiation ([1]; soaking pretreatment, media where no brassinolide was present (Treatments #1-4)): did not promote extrusion or initiation | % Megagametophytes Extruding ([1]; total, 5 ppm ABA/No Br): 35.0% | Embryogenic Culture Initiation - % Megagametophytes Extruding ([1]; total, 5 ppm ABA/No Br): 13.3% | % Megagametophytes Extruding ([1]; total, 10 ppm ABA/No Br): 30.0% | Embryogenic Culture Initiation - % Megagametophytes Extruding ([1]; total, 10 ppm ABA/No Br): 9.2% | % Megagametophytes Extruding ([1]; total, 20 ppm ABA/No Br): 40.9% | Embryogenic Culture Initiation - % Megagametophytes Extruding ([1]; total, 20 ppm ABA/No Br): 10.0% | % Megagametophytes Extruding ([2]; Total, 1.0 atm): 38.4% | % Megagametophytes Initiating ([2]; Total, 1.0 atm): 21.5% | % Megagametophytes Extruding ([2]; Total, + Pressure 1.5 atm): 46.7% | % Megagametophytes Initiating ([2]; Total, + Pressure 1.5 atm): 24.4% | % Megagametophytes Extruding ([2]; genotype 7-100, 1.0 atm): 10.0 (5.8) % | % Megagametophytes Initiating ([2]; genotype 7-100, 1.0 atm): 3.3 (3.3) % | % Megagametophytes Extruding [2, 17]: 23.3 (13.3) % | % Megagametophytes Initiating [2, 17]: 3.3 (3.3) % | % Megagametophytes Extruding ([2]; genotype 11-1095, 1.0 atm): 50.0 (0.0) % | % Megagametophytes Initiating ([2]; genotype 11-1095, 1.0 atm): 23.3 (6.7) % | % Megagametophytes Extruding [2, 18]: 50.0 (5.8) % | % Megagametophytes Initiating [2, 18]: 20.0 (5.8) % | % Megagametophytes Extruding ([2]; genotype 21-6, 1.0 atm): 55.2 (8.7) % | % Megagametophytes Initiating ([2]; genotype 21-6, 1.0 atm): 37.8 (11.8) % | % Megagametophytes Extruding [2, 19]: 66.7 (8.8) % | % Megagametophytes Initiating [2, 19]: 50.0 (11.5) % | % Initiating (std. error) [3]: 47.4 (5.5) % | % of Megagametophytes Initiating - Mean ([4]; genotype T0232l, +1 ppm ABA in media #121): 21.1% | % of Megagametophytes Initiating - Mean ([4]; genotype T0232l, ABA pre-soak (5 ppm, 30 minutes)): 27.6% | % of Megagametophytes Initiating - Mean ([4]; genotype T0235l, +1 ppm ABA in media #121): 10.5% | % of Megagametophytes Initiating - Mean ([4]; genotype T0235l, ABA pre-soak (5 ppm, 30 minutes)): 25.0% | % of Megagametophytes Initiating - Mean ([4]; genotype T0293l, +1 ppm ABA in media #121): 34.6% | % of Megagametophytes Initiating - Mean ([4]; genotype T0293l, ABA pre-soak (5 ppm, 30 minutes)): 26.9% | % of Megagametophytes Initiating - Mean ([4]; genotype T0525l, +1 ppm ABA in media #121): 10.0% | % of Megagametophytes Initiating - Mean ([4]; genotype T0525l, ABA pre-soak (5 ppm, 30 minutes)): 20.0% | % of Megagametophytes Initiating - Mean ([4]; total, +1 ppm ABA in media #121): 19.1% | % of Megagametophytes Initiating - Mean ([4]; total, ABA pre-soak (5 ppm, 30 minutes)): 24.6%
